Tests used:
Salmon testes DNA = test: Displacement of methyl green from salmon sperm DNA assessed as DNA intercalation at 10 uM incubated for 24 hrs by fluorescence plate reader method relative to control; type: nucleic-acid assay; details: Salmo salar
HCT-116 = test: Cytotoxicity against human HCT-116 cells assessed as cell growth inhibition incubated for 72 hrs by MTT assay; type: functional, cell-based; details: HCT-116, 72 h
KB 3-1 = test: Cytotoxicity against human KB 3-1 cells assessed as cell growth inhibition incubated for 72 hrs by MTT assay; type: functional, cell-based; details: KB 3-1, 72 h
K562 = test: Cytotoxicity against human K562 cells assessed as cell growth inhibition incubated for 72 hrs by MTT assay; type: functional, cell-based; details: K562, 72 h
[1] = Cytotoxicity against human HCT116-p53-null cells assessed as cell growth inhibition incubated for 72 hrs by MTT assay; type: functional, cell-based
MCF7 = test: Cytotoxicity against human MCF7 cells assessed as cell growth inhibition incubated for 72 hrs by MTT assay; type: functional, cell-based; details: MCF7, 72 h
[2] = Cytotoxicity against mouse J774.2 cells assessed as cell growth inhibition incubated for 72 hrs by MTT assay; type: toxicity, cell-based
[3] = GSH reactivity of compound at pH 7.4 phosphate buffer assessed as GSH-adduct formation at 1 mM incubated for 1 hr in presence of sodium borohydride by spectrophotometric analysis; type: physicochemical; details: pH 7.4, 1 h, 1000 µM
[4] = GSH reactivity of compound at pH 7.4 phosphate buffer assessed as GSH-adduct formation at 1 mM incubated for 1 hr by spectrophotometric analysis; type: physicochemical; details: pH 7.4, 1 h, 1000 µM
[5] = Cytotoxicity against human HaCaT cells assessed as cell growth inhibition incubated for 72 hrs by MTT assay; type: toxicity, cell-based; details: HaCaT cells
[6] = Cytotoxicity against mouse NIH3T3 cells assessed as cell growth inhibition incubated for 72 hrs by MTT assay; type: toxicity, cell-based
BT-549 = test: Anticancer activity against human BT-549 cells assessed as cell growth at 10 uM incubated for 48 hrs by sulforhodamine B assay; type: functional; details: read-out: Activity
SF-539 = test: Anticancer activity against human SF-539 cells assessed as cell growth at 10 uM incubated for 48 hrs by sulforhodamine B assay; type: functional; details: read-out: Activity
UO-31 = test: Anticancer activity against human UO-31 cells assessed as cell growth at 10 uM incubated for 48 hrs by sulforhodamine B assay; type: functional; details: read-out: Activity
CAKI-1 = test: Anticancer activity against human CAKI-1 cells assessed as cell growth at 10 uM incubated for 48 hrs by sulforhodamine B assay; type: functional; details: read-out: Activity
SR = test: Anticancer activity against human SR cells assessed as cell growth at 10 uM incubated for 48 hrs by sulforhodamine B assay; type: functional; details: read-out: Activity

Activity (Salmon testes DNA)	Activity [3]	Activity [4]	SMILES	IC50 (HCT-116)	IC50 (KB 3-1)	IC50 (K562)	IC50 [1]	IC50 (MCF7)	IC50 at 72 h [2]	IC50 at 72 h [5]	IC50 at 72 h [6]	growth at 10 µM (BT-549)	growth at 10 µM (SF-539)	growth at 10 µM (UO-31)	growth at 10 µM (CAKI-1)	growth at 10 µM (SR)
11.8%			O=C1C2=C(C(=O)c3c(O)cccc31)C(/C=C/c1ccccc1)c1sc(=O)[nH]c1S2 (configuration not stated)	35.6 µM	46.4 µM	28.4 µM	43.7 µM	7.41 µM	7.44 µM							
29.5%			C/C(=C\c1ccccc1)C1C2=C(Sc3[nH]c(=O)sc31)C(=O)c1cccc(O)c1C2=O (configuration not stated)	40.6 µM	47.5 µM	33 µM	41.7 µM	> 50 µM	30.8 µM							
	Active	Active	O=C1NC(=S)/C(=C/c2ccco2)S1													
29.5%			O=C1C2=C(C(=O)c3c(O)cccc31)C(c1cc(Cl)ccc1O)c1sc(=O)[nH]c1S2 (configuration not stated)	0.75 µM	3.64 µM	11.8 µM	3.86 µM	9.34 µM	5.25 µM	> 50 µM	37 µM					
29.5%			O=C1C2=C(C(=O)c3c(O)cccc31)C(c1ccc(Br)cc1)c1sc(=O)[nH]c1S2 (configuration not stated)	4.7 µM	2.74 µM	6.31 µM	3.82 µM	31.2 µM	2.03 µM	> 50 µM	30.4 µM					
29.5%			COc1ccc(C2C3=C(Sc4[nH]c(=O)sc42)C(=O)c2cccc(O)c2C3=O)cc1 (configuration not stated)	3.19 µM	0.87 µM	5.66 µM	3.26 µM	6.1 µM	2.95 µM	40.8 µM	6.78 µM					
29.5%			O=C1C2=C(C(=O)c3c(O)cccc31)C(c1ccc(Cl)cc1)c1sc(=O)[nH]c1S2 (configuration not stated)	4.12 µM	3.33 µM	19.2 µM	3.1 µM	7.5 µM	5.27 µM	> 50 µM	46.6 µM	39.5%	35.1%	39.8%	36.7%	38.6%
